Tests used:
Assay type in all cases: cell-based
[1] = target: T1, human TLR7 (Homo sapiens, UniProt Q9NYK1); experiment: TLR7 inhibition reporter assay (HEK-Blue cells, SEAP reporter, gardiquimod stimulation); details: HEK-Blue cells overexpressing human TLR7, SEAP reporter, gardiquimod 7.5 μM
T1 construct: host or cells: HEK-Blue cells (HEK293-derived reporter line)
T1 sequence (Q9NYK1 27-1049): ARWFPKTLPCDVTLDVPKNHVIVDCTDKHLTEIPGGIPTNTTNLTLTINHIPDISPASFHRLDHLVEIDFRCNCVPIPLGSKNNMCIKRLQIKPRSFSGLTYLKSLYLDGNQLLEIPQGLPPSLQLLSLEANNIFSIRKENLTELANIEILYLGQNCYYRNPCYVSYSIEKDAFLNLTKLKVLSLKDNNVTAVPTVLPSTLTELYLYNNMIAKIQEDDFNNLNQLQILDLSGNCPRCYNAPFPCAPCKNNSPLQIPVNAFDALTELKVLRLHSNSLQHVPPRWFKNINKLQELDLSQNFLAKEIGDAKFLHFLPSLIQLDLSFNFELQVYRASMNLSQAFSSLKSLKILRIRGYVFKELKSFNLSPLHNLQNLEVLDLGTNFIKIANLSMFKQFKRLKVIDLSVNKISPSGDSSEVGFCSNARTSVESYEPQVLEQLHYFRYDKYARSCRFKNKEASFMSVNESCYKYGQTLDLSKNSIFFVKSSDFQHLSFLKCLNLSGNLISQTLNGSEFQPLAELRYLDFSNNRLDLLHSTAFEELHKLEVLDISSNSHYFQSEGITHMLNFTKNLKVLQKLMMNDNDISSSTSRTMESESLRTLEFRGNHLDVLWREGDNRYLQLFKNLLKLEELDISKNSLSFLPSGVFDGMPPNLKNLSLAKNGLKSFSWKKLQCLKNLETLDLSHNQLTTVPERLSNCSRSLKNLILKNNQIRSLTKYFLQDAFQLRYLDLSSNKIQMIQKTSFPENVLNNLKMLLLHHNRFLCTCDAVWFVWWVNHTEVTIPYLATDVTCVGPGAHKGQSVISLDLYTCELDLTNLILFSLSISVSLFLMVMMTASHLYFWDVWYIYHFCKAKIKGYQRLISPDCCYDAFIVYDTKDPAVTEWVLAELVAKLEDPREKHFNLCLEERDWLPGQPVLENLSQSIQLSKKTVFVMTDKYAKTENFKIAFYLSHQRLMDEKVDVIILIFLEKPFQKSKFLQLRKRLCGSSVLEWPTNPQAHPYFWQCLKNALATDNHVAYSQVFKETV
In short: (§1)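 After 22 h at 37 °C, SEAP secretion was measured from human TLR7-, TLR8- or TLR9-expressing HEK-Blue reporter cells given compound (0.05 nM–50 μM) 30 min before agonist: 7.5 μM gardiquimod, 15.9 μM R848 or 5 nM ODN2006 respectively. Percent inhibition referenced to agonist-plus-DMSO and known-inhibitor wells.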

[2] = target: T2, human TLR9 (Homo sapiens, UniProt Q9NR96); experiment: TLR9 inhibition reporter assay (HEK-Blue cells, SEAP reporter, ODN2006 stimulation); details: HEK-Blue cells overexpressing human TLR9, SEAP reporter, ODN2006 5 nM
T2 construct: host or cells: HEK-Blue cells (HEK293-derived reporter line)
T2 sequence (Q9NR96 26-1032): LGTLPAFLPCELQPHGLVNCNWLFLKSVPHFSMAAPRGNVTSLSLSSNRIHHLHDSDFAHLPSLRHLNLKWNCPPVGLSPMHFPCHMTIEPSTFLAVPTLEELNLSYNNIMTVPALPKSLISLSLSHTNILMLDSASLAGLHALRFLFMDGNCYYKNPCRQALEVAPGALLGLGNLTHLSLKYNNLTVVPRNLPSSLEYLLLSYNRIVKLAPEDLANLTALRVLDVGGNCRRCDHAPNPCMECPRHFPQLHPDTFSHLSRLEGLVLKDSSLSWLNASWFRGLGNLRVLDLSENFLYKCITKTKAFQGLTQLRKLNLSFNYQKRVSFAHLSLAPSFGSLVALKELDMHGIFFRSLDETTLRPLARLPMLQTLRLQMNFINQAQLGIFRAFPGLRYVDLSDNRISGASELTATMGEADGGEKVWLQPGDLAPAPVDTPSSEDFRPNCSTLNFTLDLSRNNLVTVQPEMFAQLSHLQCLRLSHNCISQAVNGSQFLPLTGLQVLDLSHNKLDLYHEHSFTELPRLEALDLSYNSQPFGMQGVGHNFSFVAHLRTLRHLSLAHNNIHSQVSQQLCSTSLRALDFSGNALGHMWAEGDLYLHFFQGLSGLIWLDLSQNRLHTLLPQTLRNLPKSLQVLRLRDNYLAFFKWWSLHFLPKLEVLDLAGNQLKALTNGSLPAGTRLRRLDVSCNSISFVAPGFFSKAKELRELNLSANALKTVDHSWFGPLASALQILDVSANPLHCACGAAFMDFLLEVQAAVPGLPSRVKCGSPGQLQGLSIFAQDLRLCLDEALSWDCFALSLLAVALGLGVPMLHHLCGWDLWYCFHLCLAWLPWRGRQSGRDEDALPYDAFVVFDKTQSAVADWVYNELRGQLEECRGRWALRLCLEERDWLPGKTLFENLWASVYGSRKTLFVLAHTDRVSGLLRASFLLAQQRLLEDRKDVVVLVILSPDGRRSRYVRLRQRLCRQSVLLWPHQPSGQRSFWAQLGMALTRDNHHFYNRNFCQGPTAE
In short: as §1

[3] = target: T3, human TLR8 (Homo sapiens, UniProt Q9NR97); experiment: TLR8 inhibition reporter assay (HEK-Blue cells, SEAP reporter, R848 stimulation); details: HEK-Blue cells overexpressing human TLR8, SEAP reporter, R848 15.9 μM
T3 construct: host or cells: HEK-Blue cells (HEK293-derived reporter line)
T3 sequence (Q9NR97 27-1041): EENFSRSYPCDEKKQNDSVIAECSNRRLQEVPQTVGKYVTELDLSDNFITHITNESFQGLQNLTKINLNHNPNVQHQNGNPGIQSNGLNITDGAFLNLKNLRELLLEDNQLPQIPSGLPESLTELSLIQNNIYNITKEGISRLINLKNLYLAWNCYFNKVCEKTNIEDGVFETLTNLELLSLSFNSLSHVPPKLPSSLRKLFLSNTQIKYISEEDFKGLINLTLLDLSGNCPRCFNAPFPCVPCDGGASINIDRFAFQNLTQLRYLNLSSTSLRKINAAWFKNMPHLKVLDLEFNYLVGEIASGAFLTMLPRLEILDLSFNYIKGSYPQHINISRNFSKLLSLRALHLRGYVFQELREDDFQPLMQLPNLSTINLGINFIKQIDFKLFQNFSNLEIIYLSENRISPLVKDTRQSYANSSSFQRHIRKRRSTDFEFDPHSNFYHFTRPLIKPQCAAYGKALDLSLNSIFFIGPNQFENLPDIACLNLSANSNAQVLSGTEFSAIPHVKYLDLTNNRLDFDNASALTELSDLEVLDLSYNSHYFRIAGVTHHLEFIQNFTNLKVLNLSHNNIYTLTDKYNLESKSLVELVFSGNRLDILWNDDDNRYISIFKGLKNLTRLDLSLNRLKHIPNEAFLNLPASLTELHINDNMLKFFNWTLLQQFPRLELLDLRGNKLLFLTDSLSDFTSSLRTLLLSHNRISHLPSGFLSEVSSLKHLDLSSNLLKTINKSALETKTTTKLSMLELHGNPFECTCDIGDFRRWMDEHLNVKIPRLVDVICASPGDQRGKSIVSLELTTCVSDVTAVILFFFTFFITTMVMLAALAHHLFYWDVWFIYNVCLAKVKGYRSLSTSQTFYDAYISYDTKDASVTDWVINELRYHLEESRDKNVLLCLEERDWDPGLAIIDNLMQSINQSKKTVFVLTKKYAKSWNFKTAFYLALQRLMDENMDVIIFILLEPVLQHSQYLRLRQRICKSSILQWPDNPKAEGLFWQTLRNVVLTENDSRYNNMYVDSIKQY
In short: as §1

| IC50 [1] [nM] | IC50 [2] [nM] | IC50 [3] [nM] | SMILES |
| --- | --- | --- | --- |
| < 100 | 1000 to 50000 | < 100 | CCc1c(-c2ccnc3[nH]ncc23)[nH]c2ccc(C3CCN(Cc4cn[nH]n4)CC3)cc12 [Example 892, 4-(5-(1-((2H-1,2,3-triazol-4-yl)methyl)piperidin-4-yl)-3-ethyl-1H-indol-2-yl)-1H-pyrazolo[3,4-b]pyridine] |
| < 100 | 1000 to 50000 | < 100 | Cc1nnn2ccc(-c3[nH]c4ccc(C5CCN(Cc6ccn(C)n6)CC5)cc4c3C(C)C)cc12 [Example 888, 5-(3-isopropyl-5-(1-((1-methyl-1H-pyrazol-3-yl)methyl)piperidin-4-yl)-1H-indol-2-yl)-3-methyl-[1,2,3]triazolo[1,5-a]pyridine] |
| 1000 to 50000 | 1000 to 50000 | 100 to 1000 | CNC(=O)CN1CCC(c2ccc3[nH]c(-c4ccc(C)n5nc(C)nc45)c(C(C)C)c3c2)CC1 [Example 383, 2-(4-(2-(2,5-dimethyl-[1,2,4]triazolo[1,5-a]pyridin-8-yl)-3-isopropyl-1H-indol-5-yl)piperidin-1-yl)-N-methylacetamide] |
| < 100 | 100 to 1000 | 100 to 1000 | Cc1nc2cc(-c3[nH]c4ccc(C5CCN(CC(C)(C)O)CC5)cc4c3C(C)C)ccn2n1 [Example 753, 1-(4-(3-isopropyl-2-(2-methyl-[1,2,4]triazolo[1,5-a]pyridin-7-yl)-1H-indol-5-yl)piperidin-1-yl)-2-methylpropan-2-ol] |
| < 100 | > 50000 | 1000 to 50000 | CC(C)c1c(-c2cc(F)c3nccn3c2)[nH]c2ccc(C3CCN(C(=O)C[C@H](C)O)CC3)cc12 [Example 604, (S)-1-(4-(2-(8-fluoroimidazo[1,2-a]pyridin-6-yl)-3-isopropyl-1H-indol-5-yl)piperidin-1-yl)-3-hydroxybutan-1-one] |
| < 100 | < 100 | < 100 | CC1CC(N2CCC(c3ccc4[nH]c(-c5ccnc6[nH]ncc56)c(C(C)C)c4c3)CC2)CCN1 (stereo not drawn) [Example 820, 4-(3-isopropyl-5-(2′-methyl-[1,4′-bipiperidin]-4-yl)-1H-indol-2-yl)-1H-pyrazolo[3,4-b]pyridine] |
| < 100 | < 100 | < 100 | Cc1c(-c2ccnc3[nH]ccc23)[nH]c2ccc(C3CCN(C4CCN(C(C)C)CC4)CC3)cc12 [Example 813, 4-(5-(1′-isopropyl-[1,4′-bipiperidin]-4-yl)-3-methyl-1H-indol-2-yl)-1H-pyrrolo[2,3-b]pyridine] |

More lines, now with the values behind:

| SMILES | IC50 [1] [nM] | IC50 [2] [nM] | IC50 [3] [nM] |
| --- | --- | --- | --- |
| CC(C)c1c(-c2ccnc3[nH]ncc23)[nH]c2ccc(C3CCN(C(=O)CN4CCC[C@H]4C(N)=O)CC3)cc12 [Example 584, (S)-1-(2-(4-(3-isopropyl-2-(1H-pyrazolo[3,4-b]pyridin-4-yl)-1H-indol-5-yl)piperidin-1-yl)-2-oxoethyl)pyrrolidine-2-carboxamide] | < 100 | 1000 to 50000 | < 100 |
| Cc1cc(-c2[nH]c3ccc(C4CCN(CCS(C)(=O)=O)CC4)cc3c2C(C)C)cn2nncc12 [Example 785, 6-(3-isopropyl-5-(1-(2-(methylsulfonyl)ethyl)piperidin-4-yl)-1H-indol-2-yl)-4-methyl-[1,2,3]triazolo[1,5-a]pyridine] | 1000 to 50000 | 1000 to 50000 | 100 to 1000 |
| Cc1cc(-c2[nH]c3ccc(C4CCNCC4)cc3c2C(C)C)nn2ncnc12 [Example 30, 6-(3-isopropyl-5-(piperidin-4-yl)-1H-indol-2-yl)-8-methyl-[1,2,4]triazolo[1,5-b]pyridazine] | < 100 | 1000 to 50000 | < 100 |
| Cc1c(-c2ccnc3[nH]ccc23)[nH]c2ccc(C3CCNCC3)cc12 [Example 2, 4-(3-methyl-5-(piperidin-4-yl)-1H-indol-2-yl)-1H-pyrrolo[2,3-b]pyridine] | < 100 | 1000 to 50000 | < 100 |
| CCCN1CCC(c2ccc3[nH]c(-c4cc(C)c5c(c4)ncn5C)c(C(C)C)c3c2)CC1 [Example 956, 5-(3-isopropyl-5-(1-propylpiperidin-4-yl)-1H-indol-2-yl)-1,7-dimethyl-1H-benzo[d]imidazole] | < 100 | 100 to 1000 | 100 to 1000 |
| Cc1ccnc2[nH]cc(-c3[nH]c4ccc(C5CCN(C6CCOCC6)CC5)cc4c3C(C)C)c12 [Example 690, 3-(3-isopropyl-5-(1-(tetrahydro-2H-pyran-4-yl)piperidin-4-yl)-1H-indol-2-yl)-4-methyl-1H-pyrrolo[2,3-b]pyridine] | < 100 | 1000 to 50000 | < 100 |
| Cc1ccnc2c1c(-c1[nH]c3ccc(C4CCN(CC(=O)N(C)C)CC4)cc3c1C(C)C)cn2C [Example 285, 2-(4-(2-(1,4-dimethyl-1H-pyrrolo[2,3-b]pyridin-3-yl)-3-isopropyl-1H-indol-5-yl)piperidin-1-yl)-N,N-dimethylacetamide] | < 100 | 1000 to 50000 | < 100 |

— patent publication US11739098B2 (BRISTOL-MYERS SQUIBB COMPANY, priority 2017, dated 2023)
